Source: US10611778B2, “Fused bicyclic inhibitors of menin-MLL interaction” (Janssen Pharmaceutica NV, priority 2016, dated 2020)

Columns and labels:
MOLM14 = assay: Proliferation assay (spheroid assay) MOLM14; assay type: cell-based, human; conditions: Homo sapiens, MOLM-14, MOLM14; averaged values over all measurements; read-out: Spheroid assay MOLM14 (IC50)
Protocol: (§1) The anti-proliferative effect of menin/MLL protein/protein interaction inhibitor test compounds was assessed in human leukemia cell lines. The cell lines MV-4-11 and MOLM14 harbor MLL translocations and express the MLL fusion proteins MLL-AF4 and MLL-AF9, respectively, as well as the wildtype protein from the second allele. […] K562 and KG1 were used as a control cell lines containing two MLL wildtype alleles in order to exclude compounds that display general cytotoxic effects.
(§2) MV-4-11 and MOLM14 were cultured in RPMI-1640 (Sigma Aldrich) supplemented with 10% fetal bovine serum (HyClone), 2 mM L-glutamine (Sigma Aldrich) and 50 μg/ml gentamycin (Gibco). K562 were propagated in RPMI-1640 (Sigma Aldrich) supplemented with 20% fetal bovine serum (HyClone), 2 mM L-glutamine (Sigma Aldrich) and 50 μg/ml gentamycin (Gibco). KG1 were cultured in Iscove's MDM (Gibco) supplemented with 20% fetal bovine serum (HyClone), 2 mM L-glutamine (Sigma Aldrich) and 50 μg/ml gentamycin (Gibco).
(§3) In order to assess the anti-proliferative effects, 1,500 MV-4-11, 300 MOLM14, 750 K562 or 1,300 KG1 cells were seeded in 200 μl media per well in 96-well round bottom, ultra-low attachment plates (Costar, catalogue number 7007). Cell seeding numbers were chosen based on growth curves to ensure linear growth throughout the experiment. Test compounds were added at different concentrations and the DMSO content was normalized to 0.3%. Cells were incubated for 8 d at 37° C. and 5% CO2. Spheroid like growth was monitored in real-time by live-cell imaging (IncuCyteZOOM, Essenbio, 4× objective) acquiring one image every four hours for 8 d. Confluence (%) as a measure of spheroid size was determined using an integrated analysis tool.
(§4) In order to determine the cumulative effect of the test compounds over time, the area under the curve (AUC) in a plot of confluence against time was calculated. Confluence at the beginning of the experiment (t=0) was used as baseline for the AUC calculation.
(§5) Absolute IC50 values were calculated according to the following procedure: % Control=(AUC sample/AUC control)*100
(§6) AUC control=mean AUC of control values (cells without compound/DMSO as vehicle control)
(§7) A non-linear curve fit was applied using the least squares (ordinary) fit method to the plot of % control versus compound concentration. Based on this, the absolute IC50 value (half maximal inhibitory concentration of the test compound causing an anti-proliferative effect of 50% relative to the vehicle control) was calculated.

[1] = biological target: T1, Menin/MLL (menin, FITC-MBM1 peptide) (Homo sapiens, UniProt O00255, T541A); assay: Menin/MLL fluorescence polarization (FP) assay; assay type: binding; conditions: averaged values over all measurements; read-out: Menin FP assay (IC50)
T1 construct: 6xHis (C)
T1 sequence (O00255 with tags, fused parts or gaps T541A): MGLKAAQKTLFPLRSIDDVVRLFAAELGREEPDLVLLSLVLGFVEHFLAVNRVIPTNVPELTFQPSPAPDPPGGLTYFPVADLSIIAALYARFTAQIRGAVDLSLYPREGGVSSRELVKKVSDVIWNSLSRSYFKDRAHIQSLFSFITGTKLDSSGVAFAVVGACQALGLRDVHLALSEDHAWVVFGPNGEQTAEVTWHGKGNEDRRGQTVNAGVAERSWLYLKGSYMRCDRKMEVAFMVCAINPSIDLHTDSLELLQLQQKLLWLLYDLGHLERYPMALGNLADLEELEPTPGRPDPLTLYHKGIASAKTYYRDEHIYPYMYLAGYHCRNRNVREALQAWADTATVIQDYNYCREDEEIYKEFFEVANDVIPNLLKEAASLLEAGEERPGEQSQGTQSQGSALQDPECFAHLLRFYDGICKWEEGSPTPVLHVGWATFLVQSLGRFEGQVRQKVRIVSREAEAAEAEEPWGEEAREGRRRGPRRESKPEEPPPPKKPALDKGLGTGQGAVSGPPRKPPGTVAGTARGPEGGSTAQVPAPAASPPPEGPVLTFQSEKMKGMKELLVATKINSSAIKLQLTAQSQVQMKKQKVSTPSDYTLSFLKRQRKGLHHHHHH
Protocol: Pharmacological Part 1) Menin/MLL Fluorescence Polarization Assay
To a non-surface binding, black 384-well microtiter plate was added 50 nL 160× test compound in DMSO and 4 μL 2× menin in assay buffer (40 mM Tris-HCl, pH 7.5, 50 mM NaCl, 1 mM DTT and 0.001% Tween 20). After incubation of test compound and menin for 10 min at ambient temperature, 4 μL 2×FITC-MBM1 peptide (FITC-β-alanine-SARWRFPARPGT-NH2) in assay buffer was added, the microtiter plate centrifuged at 1000 rpm for 1 min and the assay mixtures incubated for 15 min at ambient temperature. The relative amount of menin: FITC-MBM1 complex present in an assay mixture is determined by measuring the fluorescence polarization (FP) of the FITC label with a BMG Pherastar plate reader (ex. 485 nm/em. 520 nm) at ambient temperature. The final concentrations of reagents in the binding assay are 100 nM menin, 5 nM FITC-MBM1 peptide and 0.625% DMSO in assay buffer. Dose-response titrations of test compounds are conducted using an 11 point, three-fold serial dilution scheme, starting at 31 μM.
Compound potencies were determined by first calculating % inhibition at each compound concentration according to equation 1: % inhibition=((HC−LC)−(FP^compound−LC))/(HC−LC))*100 (Eqn 1)
Where LC and HC are the FP values of the assay in the presence or absence of a saturating concentration of a compound that competes with FITC-MBM1 for binding to menin, and FP^compound is the measured FP value in the presence of the test compound. HC and LC FP values represent an average of at least 16 replicates per plate.
Where Bottom and Top are the lower and upper asymptotes of the dose-response curve, respectively, IC50 is the concentration of compound that yields 50% inhibition of signal and h is the Hill coefficient.

[2] = biological target: T2, Menin/MLL (terbium chelate-labeled menin, FITC-MBM1 peptide) (Homo sapiens, UniProt O00255, T541A); assay: Menin/MLL homogenous time-resolved fluorescence (HTRF) assay; assay type: binding; conditions: averaged values over all measurements; read-out: Menin HTRF assay (IC50)
T2 construct: Menin (a.a. 1-610-6×his tag) was labeled with terbium cryptate as follows
T2 sequence (O00255 with tags, fused parts or gaps T541A): T1 sequence (O00255 with tags, fused parts or gaps T541A)
In short: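 Compound preincubated 5 min with terbium-cryptate-labeled menin (aa 1-610, His-tagged; 100 pM final), then 75 nM FITC-MBM1 peptide added, 15 min at ambient temperature; 0.5% DMSO, Tris pH 7.5 buffer. HTRF ratio 520/490 nm; % inhibition vs saturating competitor, IC50 from 11-point three-fold titration from 31 μM.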

MV-4-11 = assay: Proliferation assay (spheroid assay) MV-4-11; assay type: cell-based, human; conditions: Homo sapiens, MV4-11, MV-4-11; averaged values over all measurements; read-out: Spheroid assay MV-4-11 (IC50)
Protocol: as §1, §2, §3, §4, §5, §6, §7

KG1 = assay: Proliferation assay (spheroid assay) KG1 control cell line; assay type: cell-based; conditions: Homo sapiens, KG-1, averaged values over all measurements
Protocol: as §1, §2, §3, §4, §5, §6, §7

IC50 (MOLM14) [nM]	IC50 [1] [nM]	IC50 [2] [nM]	IC50 (MV-4-11) [nM]	SMILES	IC50 (KG1) [nM]
3800	89	61	2000	FC(F)(F)Cc1cc2c(N3CC[C@@H]4[C@@H](CCN4Cc4ccccc4)C3)ncnc2s1 (single isomer, unassigned) [Compound 3]	–
12800	230	69	8300	FC(F)(F)Cc1cc2c(N3CC[C@H]4[C@H](CCN4Cc4ccccc4)C3)ncnc2s1 (single isomer, unassigned) [Compound 4]	–
10300	98	106	3500	Cn1cc(CN2CC[C@H]3CN(c4ncnc5sc(CC(F)(F)F)cc45)CC[C@H]32)cn1 (single isomer, unassigned) [Compound 9]	–
2000	250	118	4400	FC(F)(F)Cc1cc2c(N3CC[C@@H]4[C@@H](CCN4Cc4ccc(Cl)nc4)C3)ncnc2s1 (single isomer, unassigned) [Compound 10]	–
> 15000	590	680	> 15000	FC(F)(F)Cc1cc2c(N3CC[C@H]4[C@H](CCN4Cc4ccc(Cl)nc4)C3)ncnc2s1 (single isomer, unassigned) [Compound 11]	–
9200	430	860	2100	Cc1nc(CN2CC[C@H]3CN(c4ncnc5sc(CC(F)(F)F)cc45)CC[C@H]32)cs1 (single isomer, unassigned) [Compound 12]	–
> 15000	520	–	13700	Cn1cc(CN2CC[C@@H]3CN(c4ncnc5sc(CC(F)(F)F)cc45)CC[C@@H]32)cn1 (single isomer, unassigned) [Compound 13]	–
1300	–	41	480	Fc1ccc(CN2CC[C@@H]3CN(c4ncnc5sc(CC(F)(F)F)cc45)C[C@@H]3C2)cn1 (single isomer, unassigned) [Compound 37]	> 15000
–	–	165	670	Cc1cncc(CN2CC[C@@H]3CN(c4ncnc5sc(CC(F)(F)F)cc45)C[C@@H]3C2)c1 (single isomer, unassigned) [Compound 39]	2500
1600	–	25	260	Cc1ccc(CN2CC[C@@H]3CN(c4ncnc5sc(CC(F)(F)F)cc45)C[C@@H]3C2)cn1 (single isomer, unassigned) [Compound 40]	8100
1200	–	74	840	FC(F)(F)Cc1cc2c(N3C[C@H]4CCN(Cc5cccnc5Cl)C[C@H]4C3)ncnc2s1 (single isomer, unassigned) [Compound 41]	4500
–	–	87	2100	COc1ncccc1CN1CC[C@@H]2CN(c3ncnc4sc(CC(F)(F)F)cc34)C[C@@H]2C1 (single isomer, unassigned) [Compound 44]	> 15000
–	–	63	990	CC(C)(CO)CN1CC[C@@H]2CN(c3ncnc4sc(CC(F)(F)F)cc34)C[C@@H]2C1 (single isomer, unassigned) [Compound 58]	> 15000
–	–	33	240	FC(F)(F)Cc1cc2c(N3C[C@H]4CCN(CC5CCCOC5)C[C@H]4C3)ncnc2s1 (single isomer, unassigned) [Compound 99]	> 15000
–	–	57	930	FC(F)(F)Cc1cc2c(N3C[C@H]4CCN(CC5CCCCO5)C[C@H]4C3)ncnc2s1 (single isomer, unassigned) [Compound 100]	> 15000
–	–	28	410	FC(F)(F)Cc1cc2c(N3C[C@H]4CCN(CC5CCOC5)C[C@H]4C3)ncnc2s1 (single isomer, unassigned) [Compound 101]	> 15000
> 15000	520	1130	> 15000	Cn1cc(CN2CC3CN(c4ncnc5sc(CC(F)(F)F)cc45)CC3C2)cn1 (stereo not drawn) [Compound 18]	–
–	4540	10000	–	Cn1cc(CN2CC[C@@H]3CN(c4ncnc5sc(CC(F)(F)F)cc45)C[C@@H]32)cn1 [Compound 27A]	–
–	3650	8990	–	Cn1cc(CN2CC[C@H]3CN(c4ncnc5sc(CC(F)(F)F)cc45)C[C@H]32)cn1 [Compound 27B]	–
–	1560	2780	–	FC(F)(F)Cc1cc2c(N3C[C@@H]4CN(Cc5ccccc5)[C@@H]4C3)ncnc2s1 [Compound 32]	–
–	1190	2100	–	FC(F)(F)Cc1cc2c(N3C[C@H]4CN(Cc5ccccc5)[C@H]4C3)ncnc2s1 [Compound 33]	–
–	780	1980	–	Cn1cc(CN2CC3CCN(c4ncnc5sc(CC(F)(F)F)cc45)CC3C2)cn1 (stereo not drawn) [Compound 34]	–
6700	88	70	840	Cn1cc(CN2CCC3CN(c4ncnc5sc(CC(F)(F)F)cc45)CC3C2)cn1 (stereo not drawn) [Compound 71]	–
–	1020	906	–	FC(F)(F)Cc1cc2c(N3CCC4C(CCN4Cc4cc[nH]n4)C3)ncnc2s1 (stereo not drawn) [Compound 84]	–

SMILES	IC50 (MOLM14) [nM]	IC50 [1] [nM]	IC50 [2] [nM]	IC50 (MV-4-11) [nM]	IC50 (KG1) [nM]
OCCn1cccc1CN1CCC2CN(c3ncnc4sc(CC(F)(F)F)cc34)CCC21 (stereo not drawn) [Compound 23]	4300	220	366	1700	–
